# Test results: patent US6566307B1, “α,α′-substituted n-alkyl-3-alkenylbenzoyl-pyrazol-derivatives” (BASF Aktiengesellschaft, priority 1999, dated 2003)
# How the values were obtained:
# Assay in all cases: Greenhouse herbicidal activity, post-emergence method
# Conditions in all cases: scale 0 to 100 (100 = complete destruction, 0 = no damage)
# [1] = test system: ECHCG; assay type: in vivo, barnyardgrass
# Source text: (§1) The herbicidal activity of the compounds of the formula I was shown by greenhouse experiments: The culture containers used are plastic pots containing loamy sand with approximately 3.0% of humus as the substrate. The seeds of the test plants are sown separately for each species. For the post-emergence treatment, the test plants were first grown to a height of 3 to 15 cm, depending on the plant form, and only then treated with the active compounds which have been suspended or emulsified in water. The test plants were for this purpose either sown directly and grown in the same containers, or they were first grown separately as seedlings and transplanted into the test containers a few days prior to treatment. The application rate for the post-emergence treatment was 0.25, 0.125 or 0.0625 kg of active substance (a.s.)/ha. Depending on the species, the plants were kept at 10-25° C. or 20-35° C. The test period extended over 2 to 4 weeks. During this time, the plants are tended, and their response to the individual treatments was evaluated. The evaluation was carried out using a scale from 0 to 100. 100 means no emergence of the plants, or complete destruction of at least the aerial parts and 0 means no damage, or normal course of growth. The plants used in the greenhouse experiments were composed of the following species: [table]
# [2] = test system: CHEAL; assay type: in vivo, lambsquarter
# Source text: as §1
# [3] = test system: SINAL; assay type: in vivo, white mustard
# Source text: as §1
# [4] = test system: SETVI; assay type: in vivo, green foxtail
# Source text: as §1
# [5] = test system: POLPE; assay type: in vivo, ladysthumb
# Source text: as §1
# [6] = application rate 0.0625 kg of a.s./ha
# [7] = application rate 0.125 kg of a.s./ha
compound,measurement,setting,value
C=Cc1c(S(C)(=O)=O)ccc(C(=O)C2C=NN(C(C)C)C2O)c1OC (stereo not shown),Herbicidal activity when used by the post-emergence method in a greenhouse,[1]; [6],95
same,Herbicidal activity when used by the post-emergence method in a greenhouse,[1]; [7],95
same,Herbicidal activity when used by the post-emergence method in a greenhouse,[2]; [6],100
same,Herbicidal activity when used by the post-emergence method in a greenhouse,[2]; [7],100
same,Herbicidal activity when used by the post-emergence method in a greenhouse,[3]; [6],98
same,Herbicidal activity when used by the post-emergence method in a greenhouse,[3]; [7],98
same,Herbicidal activity when used by the post-emergence method in a greenhouse,[4]; [6],95
same,Herbicidal activity when used by the post-emergence method in a greenhouse,[4]; [7],95
same,Herbicidal activity when used by the post-emergence method in a greenhouse,[5]; [6],100
same,Herbicidal activity when used by the post-emergence method in a greenhouse,[5]; [7],100
